Source: patent US12070457B2, “Substituted pyridines, pyridazines, pyrimidines, and 1,2,3-triazines as bruton's tyrosine kinase inhibitors” (HUTCHISON MEDIPHARMA LIMITED, priority 2020, dated 2024)
pIC50: −log10 of the molar value.

Tests used:
BTK recombinant protein = BTK recombinant protein (Homo sapiens (Human), UniProt Q06187); assay: Determination of biochemical BTK (Z'-LYTE kinase assay)
From the text: Example 2 Determination of Biochemical BTK
(§1) 1. Reagents and Materials
• BTK recombinant protein: Invitrogen, Cat #PV3363; • Z′-LYTE® kinase test kit-tyrosine 1 peptide: Invitrogen, Cat #PV3190; • 384-well low-flange black flat-bottomed polystyrene NBS microplate, no lid, no sterilization: Corning, Cat #3575; • 96-well polystyrene conical-bottomed MicroWell™ plate, sealed with a lid: Thermo Scientific™ Nunc™, Cat #277143; • Envision multi-mode plate reader: PerkinElmer; • Mixmate® shaker: Eppendorf; • TS-2102 shaking incubator: TENSUC; 2. Methods
Z′-LYTE® biochemical assay employs a fluorescence resonance energy transfer (FRET)-based, coupled-enzyme format and is based on the differential sensitivity of phosphorylated and non-phosphorylated peptides to proteolytic cleavage. Both ends of the short peptide substrate are labeled with two fluorescent groups to form a FRET paired combination. In the primary reaction (the Kinase Reaction), the kinase transfers the γ-phosphate of ATP to a single […] residue on the short peptide substrate. In the secondary reaction (the development reaction), the non-phosphorylated short peptides were recognized and cleaved by a site-specific protease (the development reagent). Phosphorylated short peptides can resist such cleavage. Cleavage of short peptides can disrupt the donor (such as coumarin) and receptor fluorophores (fluorescein) on the short peptides, while the phosphorylated short peptides can maintain FRET. The calculation method of the ratio is as follows, and the ratio of the respective emission signals generated by the donor fluorophores emitted (after excitation at 400 nm) to the receptors is calculated. Emission signal ratio=emitted light by coumarin (445 nm)/emitted light by fluorescein (520 nm). If the FRET short peptide is phosphorylated (such as no kinase inhibitor), the emitted light ratio will remain in a lower level. If the FRET short peptide is non-phosphorylated (such as kinase inhibitor), the emitted light ratio will be in a higher level. In this way, the inhibitory effects of different compound inhibitors on BTK kinase activity would be distinguished.
The experiment were carried out according to the instructions of the Z′-LYTE® kinase test kit-tyrosine 1 peptide. Reagent preparation: 1.33× kinase buffer: 5× kinase buffer was diluted with water to 1.33× kinase buffer; an enzyme solution: the kinase was dissolved in 1.33× kinase buffer with the final working concentration being 3.32 nM; a short peptide solution: a short peptide stock solution (1 mM dissolved in DMSO) was dissolved in 1.33× kinase buffer with the final working concentration being 2 μM; Z′-LYTE Tyr01 phosphorylated short peptide solution, 0.6 μl of stock solution (1 mM dissolved in DMSO) was dissolved in 149.4 μl of 1.33× kinase buffer; an ATP solution: an ATP stock solution (10 mM aqueous solution) was dissolved in 1.33× kinase buffer with the final working concentration being 32 μM; a color-developing solution: color-developing solution B was dissolved in color-developing buffer with the final working concentration being 1× color-developing solution; 4× compound preparation: the compound was diluted in 3-fold gradient concentration to finally obtain 4% DMSO aqueous solution containing different concentrations of the compound, with the final working concentration being 3000, 1000, 333.33, 111.11, 37.04, 12.35, 4.12, 1.37 nM, 8 concentration points in total.
Specific steps of the experiment: In the experiment, there were three control groups, each with 8 replicate wells, which were C1 100% inhibition group (no ATP), C2 0% inhibition group (with ATP), and C3 100% phosphorylation group, respectively. 2.5 μl of serially diluted compound was added to each well of a 384-well plate, with double replicate wells, and 4% DMSO solution was added to wells C1, C2, and C3. […]

[1] = biological target: phosphorylated BTK in Ramos cells (Homo sapiens (Human), UniProt Q06187); assay: Determination of phosphorylated BTK in Ramos cells (BTK phospho-Y223 HTRF); type: cell-based
Chain of phosphorylated BTK in Ramos cells (Q06187 whole entry): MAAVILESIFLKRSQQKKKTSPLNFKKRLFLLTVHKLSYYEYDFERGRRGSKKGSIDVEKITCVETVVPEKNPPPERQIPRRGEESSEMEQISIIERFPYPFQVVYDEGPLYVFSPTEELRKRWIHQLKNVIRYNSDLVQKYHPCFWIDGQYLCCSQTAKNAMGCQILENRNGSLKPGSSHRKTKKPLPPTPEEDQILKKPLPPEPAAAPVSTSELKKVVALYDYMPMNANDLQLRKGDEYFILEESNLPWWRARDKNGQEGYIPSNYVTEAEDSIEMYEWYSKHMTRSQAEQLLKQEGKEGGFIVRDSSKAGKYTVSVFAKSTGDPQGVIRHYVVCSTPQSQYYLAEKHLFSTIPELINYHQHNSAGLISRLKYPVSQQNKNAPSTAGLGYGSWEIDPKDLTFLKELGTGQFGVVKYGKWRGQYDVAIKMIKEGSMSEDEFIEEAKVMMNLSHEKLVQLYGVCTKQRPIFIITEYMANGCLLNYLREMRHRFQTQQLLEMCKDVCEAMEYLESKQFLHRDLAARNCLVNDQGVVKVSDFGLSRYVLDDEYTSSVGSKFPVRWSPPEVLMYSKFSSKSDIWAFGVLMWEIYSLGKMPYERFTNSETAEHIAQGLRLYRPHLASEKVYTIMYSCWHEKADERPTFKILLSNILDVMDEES
Description: Determination of Phosphorylated BTK in Ramos Cells
as §1
• Ramos cells: Ramos cells were purchased from American Standard Biological Collection Center ATCC Cell Bank, PRMI 1640 medium containing L-glutamine, 1.5 g/L of sodium bicarbonate, 2.383 g/L of HEPES solution, 0.11 g/L of sodium pyruvate and 4.5 g/L of glucose was used, added 10% fetal bovine serum FBS, and placed in a 5% C02, 37° C. cell incubator for normal culture; • PRMI 1640 medium: GIBCO, Cat #A10491-01; • Fetal bovine serum (FBS): GIBCO, Cat #100100-147; • Hank's balanced salt solution (HBSS): GIBCO, Cat #14025-092; • Immunoglobulin M (IgM): Jackson Immuno, Cat #109-006-129; • 3% hydrogen peroxide (3% H2O2): Sigma, Cat #88597-100 ML-F; • Phosphorylated BTK HTRF detection kit (BTK phospho-Y223 HTRF kit): Cisbio, Cat #63ADK017PEH; • Microwell plate reader: Envision, Perkin Elmer; • 384-well plate CulturPlate™384: Perkin Elmer, Cat #6007680 • 96-well plate: Corning, Cat #3799. 2. Methods
Ramos cells were starved in PRMI 1640 medium with 1% FBS for 2 hours. The starved Ramos cells were diluted with Hank's balanced salt solution to 5.0×10^6 cells/ml, seeded in a 96-well plate with 20 μL/well (1.0×10^5 cells/well), and cultured in a 5% CO2, 37° C. cell incubator. […]
The 384 well plate incubated overnight in the constant temperature incubator was taken out to detect the luminescence signal using the Envision microwell plate reader at the […]. The reading value at 665 nm/615 nm of each well multiplied by 104 was used as the signal value of each well.
The average signal value of the wells supplemented with the mixed solution of human immunoglobulin M (final concentration was 10 μg/mL) and hydrogen peroxide (final concentration was 3.3 mM) without the test compound was regarded as the high value, and the average signal value of the wells without immunoglobulin M stimulation and without the test compound was regarded as the low value. According to the signal value in each well, the inhibition ratio (%) of each concentration of compounds was calculated, and the 205 model in XL-Fit 5.3 software (ID Business Solutions Limited) was used to obtain an IC50 value. […]

[2] = system: B cell activation in mice whole blood (BTK target); assay: In vivo inhibitory effect on BTK target (anti-IgD antibody-induced B cell activation in mice whole blood); parameters: species or system mouse
Description: Objects: B cells in mice whole blood were induced and activated by the anti-IgD antibody, and the inhibitory effect of the compound of the present invention on B cell activation in vivo was studied, so as to determine the inhibitory effect of the compound of the present invention on the BTK target in vivo.
Methods: C57BL/6 mice (female, 18-20 g, purchased from Shanghai Lingchang Biotechnology Co., Ltd.) were grouped according to Table 2.
The animals of each group were administered, then were placed in CO2 for anesthesia at designated time points, blood samples were taken from rats via retro-orbital bleeding, and heparin was used for anticoagulation; 90 μL of whole blood was taken from mice of each group, and added to a 96 well culture plate, and anti-mouse IgD antibody (BIO-RAD, Cat #MCA4693) was added to each well to a final concentration of 0.01 μg/μL (respectively for the each drug-treated group and anti-IgD antibody-inducted vehicle group); in addition, 90 μL of whole blood of mice in the vehicle group was taken and added to the 96-well culture plate, and PBS (phosphate buffer, GIBCO, Cat #C20012500BT) was added to each well to a final concentration of 0.01 μg/μL (namely, the vehicle control group); Each group was mixed well and incubated in a 37° C./5% CO2 incubator for 4 hours. In addition, the blood of mice in the drug-treated group was centrifuged to separate plasma for blood concentration analysis.
B cell activation ratio=percentage of CD69^+CD19^+ double positive B cells/percentage of CD19^+ single positive B cells
All data are represented by mean±standard error. For the comparison between each drug-treated group and the anti-IgD antibody-induced vehicle group, p value was calculated by Graphpad Prism using one-way ANOVA analysis of variance and Dunnett's test, and for the comparison between each drug-treated group, p value was calculated by using unpaired t test.

Chain of BTK recombinant protein (Q06187 whole entry): as above

| Compound | pIC50 (BTK recombinant protein) | pIC50 [1] | B cell activation ratio (the proportion of activated B cells to total B cells) ([2]; 5 mg/kg oral single, 16 h) | Inhibition ratio (%) ([2]; 5 mg/kg oral single, 16 h) | inhibition ratio on B cell activation ([2]; 5 mg/kg, after 16 hours of administration, anti-IgD antibody-induced, mice whole blood) |
| --- | --- | --- | --- | --- | --- |
| Cn1cc(-c2ccnc(-n3ccn4c5c(cc4c3=O)CC(C)(C)C5)c2CO)cc(Nc2ccc(N3CCN4CCOCC4C3)cn2)c1=O (racemic) [Compound 232] | 7.92 | 8.10 | – | – | – |
| Cn1cc(-c2ccnc(-n3ccn4c5c(c(F)c4c3=O)CCCC5)c2CO)cc(Nc2cc3n(n2)CCOC3)c1=O [compound 176] | – | – | 13.9 | 48% | 48% |
